Measurements as given in US4937390A, “Compound useful for the production of 3-deoxy-3-fluoro-myo-inositol” (University of Pittsburgh, priority 1989, dated 1990).

Tested on: PC12 cells
Test: Cell growth inhibition (cell counts), dose response and time course in PC12 cells
Assay type: cell-based, rat
Settings: for concentration determined to have maximal effects in the dose response study / inhibition of cell replication / Cell Number / potency at inhibiting cell replication relative to the 3-fluoro-myo-inositol analog: PC12 cells; for concentration determined to have maximal effects in the dose response study: cell replication; for inhibition of cell replication: dose response study, maximal effect; for inhibition of cell replication / Cell Number: five days
Experimental: The biological effects of the 3-fluoro and 1-fluoro myo-inositol analogs were tested in PC12 cells, a cell line derived from a rat pheochromocytoma, which has been widely used to study the effects of various growth factors and […]., Adv. Cell Neurobiol., 3, 373-414, (1982), the disclosure of which is incorporated herein by reference.
PC12 cells were seeded at a density of 3.3×10^5 cells/cm^2 in plastic culture dishes and grown at 37° C. in a humidified atmosphere of 95% air/5% CO2. The basal medium used in these experiments was RPMI-1640 medium (Gibco). In some experiments a specially formulated inositol-free RPMI-1640 medium (Gibco) was used. This basal medium was supplemented with either normal or extensively dialyzed horse serum (10%) and fetal calf serum (5%) (Gibco). Some control dishes were grown in complete RPMI medium, i.e. with myo-inositol and containing non-dialyzed serum (Control 1) and some control dishes were grown in inositol deficient medium, i.e., RPMI without inositol and with dialyzed serum (Control 2). The inositol analogs were dissolved in distilled H2 O and added to the culture medium at the indicated concentrations.
Cell counts were performed by removing the medium, washing the cells gently in PBS with calcium, detaching the cells by 15 minute induction in PBS/EDTA (0.5 mM) containing 0.1% trypsin, and counting in a hemocytometer.
A dose-response study was performed by growing cells in the presence of certain concentrations of the 3-fluoro and the 1-fluoro-myo-inositol analogs. At the end of five days, the cells were counted by the means described hereinabove.
The time course effect on cell replication was then examined, using the concentration of 1-fluoro and 3-fluoro myo-inositol analogs determined to have maximal effects in the dose response study of Table 1. (1 mM and 5 mM for the 1-fluoro and 3-fluoro-myo-inositol analogs, respectively).

| SMILES | concentration determined to have maximal effects in the dose response study [mM] | inhibition of cell replication | Cell Number (0.01 mM) | Cell Number (0.03 mM) | Cell Number (0.10 mM) | Cell Number (0.30 mM) | Cell Number (1.0 mM) | Cell Number (3.0 mM) | Cell Number (10.0 mM) | Cell Number (30.0 mM) | other results |
| --- | --- | --- | --- | --- | --- | --- | --- | --- | --- | --- | --- |
| O[C@@H]1[C@@H](O)[C@H](O)[C@@H](F)[C@@H](O)[C@H]1O [3-deoxy-3-fluoro-myo-inositol] | 5 | approximately 50% | 4.60 ± 0.24 × 10^5 cells/dish | 4.49 ± 0.07 × 10^5 cells/dish | 4.21 ± 0.05 × 10^5 cells/dish | 3.87 ± 0.05 × 10^5 cells/dish | 3.21 ± 0.08 × 10^5 cells/dish | 2.53 ± 0.04 × 10^5 cells/dish | 2.50 ± 0.03 × 10^5 cells/dish | 2.36 ± 0.01 × 10^5 cells/dish | Time course cell counts (Day 0, 5 mM, inositol-free medium): 1.46 × 10^5 cells per dish; Time course cell counts (Day 1, 5 mM): 2.12 ± 0.02 cells per dish, × 10^5; Time course cell counts (Day 3, 5 mM): 4.2 ± 0.1 cells per dish, × 10^5; Time course cell counts (Day 5, 5 mM): 7.6 ± 0.1 cells per dish, × 10^5; Time course cell counts (Day 7, 5 mM): 10.6 ± 0.6 cells per dish, × 10^5 |
| O[C@@H]1[C@@H](O)[C@@H](O)[C@@H](F)[C@H](O)[C@H]1O [1-deoxy-1-fluoro-myo-inositol] | 1 | approximately 50% | 4.53 ± 0.13 × 10^5 cells/dish | 4.18 ± 0.07 × 10^5 cells/dish | 3.71 ± 0.03 × 10^5 cells/dish | 3.29 ± 0.08 × 10^5 cells/dish | 2.73 ± 0.13 × 10^5 cells/dish | 2.67 ± 0.09 × 10^5 cells/dish | 2.68 ± 0.07 × 10^5 cells/dish | 2.72 ± 0.03 × 10^5 cells/dish | Time course cell counts (Day 0, 1 mM, inositol-free medium): 1.46 × 10^5 cells per dish; Time course cell counts (Day 1, 1 mM): 2.10 ± 0.03 cells per dish, × 10^5; Time course cell counts (Day 3, 1 mM): 4.5 ± 0.10 cells per dish, × 10^5; Time course cell counts (Day 5, 1 mM): 8.4 ± 0.7 cells per dish, × 10^5; Time course cell counts (Day 7, 1 mM): 10.8 ± 0.6 cells per dish, × 10^5; potency at inhibiting cell replication relative to the 3-fluoro-myo-inositol analog (listed as 1-deoxy-1-deoxy-1-fluoro-myo-inositol): about five-fold; potency at inhibiting cell replication relative to the 3-fluoro-myo-inositol analog (listed as 1-fluoro-myo-inositol analog): 5 fold |
